Patent US8715621B2, “Radical polarizing agents for dynamic nuclear polarization” (Massachusetts Institute of Technology, priority 2012, dated 2014)

Assays:
[1] = Solubility in water / aqueous media; type: physicochemical
Stability in air = type: physicochemical
[2] = EPR spectrum: line width, aggregation, dimerization; conditions: solution, glass or solid

Substance: 1,3-bisdiphenylene-2-phenylallyl [BDPA]
- solubility in water / aqueous media [1]: lack of solubility in aqueous media
- air stability (Stability in air): air stable
- aggregate formation or radical dimerization [2]: no dimerization in solid or in solution
